In publication PMC8107365, “Overlapping Properties of the Short Membrane-Active Peptide BP100 With (i) Polycationic TAT and (ii) α-helical Magainin Family Peptides” (Frontiers in Cellular and Infection Microbiology, 2021):
In brackets after ≈: the same amount, converted by molar mass. Several values for one entry are separate records, joined by “and”; a condition that tells them apart may be missing. Equal values may be shown once. Read-outs that look alike come from different tables or passages of the source. Marks after values point to notes of the source that are not given here. Where a SMILES comes first, the peptide text is derived from it.

Legend:
[1] = tested on: human erythrocytes; assay: Hemolysis assay; settings: for HC10, concentration that induced 10% hemolysis: human erythrocytes 0.25% (v/v), Tris buffer pH 7.6/DMSO, 37°C, 20 min, absorbance 540 nm, relative to Triton X-100, up to 100 µM peptide
Procedure: The hemolytic effect of the peptides was tested on human erythrocytes as previously described ([Strandberg et al., 2007]). Citrate phosphate dextrose-stabilized blood bags with erythrocyte suspensions were obtained from the blood bank of the local municipal hospital (Karlsruhe, Germany). Erythrocytes were washed twice with 9-fold excess of Tris buffer (172 mM, pH 7.6 at 0°C) followed by centrifugation at 600 g for 10 min at 4°C, and kept on ice in between. After the second wash, the erythrocytes were transferred from the sediment to a fresh tube with the same precooled buffer to be diluted to about 10% (v/v) hematocrit, giving the stock cell suspension, which was kept on ice. […] The stock cell suspension was further diluted to about 0.5% (v/v). After preincubating for 3 min, 200 μL of the resulting erythrocyte dilution was transferred to each tube of the corresponding peptide serial dilution, to a final concentration of 0.25% (v/v). For each dilution series, zero hemolysis was obtained by adding the erythrocytes to Tris buffer (pH 7.6 at 37°C)/dimethylsulfoxide (9:1 v/v) and measuring the background lysis in the absence of peptide. For 100% hemolysis, the erythrocytes were added to 0.2% of Triton X-100 (Sigma, Germany) in the same buffer, giving a final concentration of 0.1% Triton X-100. Incubation was performed at 37°C for 20 min with gentle shaking. The tubes were centrifuged at 20 000 g for 5 min to pellet the cells, and the absorbance at 540 nm was recorded against water. The percentage lysis was then calculated relative to 0% lysis with buffer and 100% lysis by Triton X-100. The absorbance measurement was repeated three times, and the averaged values are used.

[2] = tested on: HeLa cells; assay: Toxicity against HeLa cells (calcein AM, fluorescence microscopy); format: cell-based, human; settings: for Toxicity (HeLa): overview Figure 5; for HeLa cells: lowest tested concentration where dead HeLa cells were observed: peptides N-terminally labeled with Fluka 630 red, 30 min, 37°C, HKR buffer pH 7.4, calcein AM, confocal microscopy
Procedure: HeLa TK A549 cells (from DSMZ, Braunschweig, Germany) were cultivated in minimal essential medium (MEM) with 10% fetal calf serum (FCS) (PAA, Cöble, Germany), and Glutamax (Invitrogen, Karlsruhe, Germany), without antibiotics. Cell density after incubation over night was 30000 cells/chamber in 300 µL medium. For experiments, the medium was removed and cells incubated with peptides at the respective concentration in HEPES Krebs Ringer (HKR) buffer, which consists of 5 mM HEPES, 137 mM NaCl, 2.68 mM KCl, 2.05 mM MgCl2, 1.8 mM CaCl2, and 5.55 mM glucose, pH 7.4. After 30 min (37°C, 5% CO2) cells were washed with HKR buffer, and the behavior of cells at variable peptide concentration examined. A confocal microscope type SP 5 from Leica was used for fluorescence microscopy. The 488 nm line of an argon laser was used for excitation of calcein and the 633 nm line of a helium-neon laser was used for excitation of Fluka 630 red. For kinetic experiments, cells were washed after incubation for 30 minutes and placed into MEM medium at 37°C, and studied after 1, 2, 4, 8 and 24 h. Five minutes before microscopy, calcein AM (Fluka, Buchs, Switzerland) was added to a final concentration of 1 nM to examine cell viability. To avoid artifacts, cells were not fixed.

[3] = tested on: Enterobacter helveticus (DSM 18396)
Procedure: (§1) The antimicrobial activity of BP100 was tested using a standard MIC dilution assay, as previously described ([Strandberg et al., 2007]; [Wadhwani et al., 2012a]). Two Gram-negative strains, Escherichia coli (DSM 498) (K12) and Enterobacter helveticus (DSM 18396), and one Gram-positive strain, Kocuria rhizophila (DSM 348) were used. Bacteria were grown in Luria-Bertani medium at 37°C and 230 rpm overnight, and diluted in 1% trypticase soy broth (TSB). Peptide stock solutions (1024 μg/mL) were prepared in water. Microtiter plates (96 wells of 100 μl) were filled with 50 μl of 1% TSB, and serial 2-fold dilutions of peptides were arranged in columns. The two final rows of each plate remained without peptide, so that the penultimate data point served as the positive control (no peptide) and the final one as the negative control (not inoculated). To each well (except for the final row of each plate), an aliquot of 50 µl of a bacterial suspension containing 10^6 colony-forming units/mL was added to obtain a final volume of 100 µL. Antibacterial activities are expressed as the MIC and correspond to the lowest concentration of peptide, in micromolar units, at which no bacterial growth was detected after overnight incubation at 37°C. The tests were made in triplicate for each peptide, and the value shown is the lowest concentration where at least for two repetitions the growth was inhibited.

[4] = tested on: Escherichia coli (DSM 498) (K12)
Procedure: as §1

[5] = tested on: Kocuria rhizophila (DSM 348)
Procedure: as §1

[6] = tested on: tested bacteria; settings: E. coli DSM 498, E. helveticus, K. rhizophila
Procedure: as §1

[7] = tested on: erythrocytes; settings: ref Sabatier et al., 1991; Wang et al., 2010; cited from earlier work
Description: Considering that Table 2 (and Figure 2 ) gives the percent of hemolysis as a function of concentration in µM, it can be noted that BP100 c ...

[8] = ref Thorén et al., 2005; cited from earlier work
Description: Another kind of action of membrane-bound peptides is to facilitate fusion between membranes of vesicles or cells. We find here that BP100 has strong fusogenic activity ( Figure 4 ), even higher than the dedicated fusion peptide, FP23 from HIV-1, except in uncharged POPC/CHOL. […] These fusion results fit well with a previous comparison of different AMPs and CPPs ([Wadhwani et al., 2012b]). Obvio ...

[9] = serial 2-fold dilution, 1% TSB, overnight 37°C, triplicate, lowest concentration inhibiting growth in at least two repetitions

Molecule	HC10, concentration that induced 10% hemolysis [1]	Hemolysis ([1]; overview Figure 5)	Hemolytic activity, in words ([1]; peptide concentrations up to 100 µM)	Toxicity (HeLa) [2]	HeLa cells: lowest tested concentration where dead HeLa cells were observed [2]	MIC E. helveticus [3, 9] [µM]	MIC E. coli (DSM 498) [4, 9]	MIC K. rhizophila [5, 9] [µM]	MIC over the three tested strains [6]	Hemolytic activity, in words (literature) [7]	Lipid mixing, in words [8]	Hemolysis [1]	MIC E. helveticus ([3]; DSM 18396) [µM]	MIC E. coli (DSM 498) ([4]; DSM 498) [µM]	MIC K. rhizophila ([5]; DSM 348) [µM]
N=C(N)NCCC[C@H](NC(=O)CN)C(=O)N[C@@H](CCCCN)C(=O)N[C@@H](CCCCN)C(=O)N[C@@H](CCCNC(=N)N)C(=O)N[C@@H](CCCNC(=N)N)C(=O)N[C@@H](CCC(N)=O)C(=O)N[C@@H](CCCNC(=N)N)C(=O)N[C@@H](CCCNC(=N)N)C(=O)N[C@@H](CCCNC(=N)N)C(=O)N1CCC[C@H]1C(=O)N1CCC[C@H]1C(=O)N[C@@H](CCC(N)=O)C(=O)O [TAT]	>>100 μM	-	hardly any hemolytic activity	-	> 20 μM and > 20 ^e μM	500 (≈ 860 µg/mL)	>500 ^e μM	125 (≈ 215 µg/mL)	at least 125 µM	did not show any hemolytic activity					
CC[C@H](C)[C@H](NC(=O)[C@H](CCCCN)NC(=O)[C@H](CCCCN)NC(=O)[C@H](Cc1ccccc1)NC(=O)[C@H](CC(C)C)NC(=O)[C@H](CCCCN)NC(=O)[C@@H](N)CCCCN)C(=O)N[C@@H](CC(C)C)C(=O)N[C@@H](CCCCN)C(=O)N[C@@H](Cc1ccc(O)cc1)C(=O)N[C@@H](CC(C)C)C(N)=O [BP100]	45 µM	++		+++	4 µM	6.3 (≈ 8.95 µg/mL)	6.3 µM (≈ 8.95 µg/mL)	3.2 (≈ 4.55 µg/mL)							
Ac-GRKKRRQRRRPWQ-NH2 [TATP59W]											high extent of lipid mixing				
CC[C@H](C)[C@H](NC(=O)[C@H](C)NC(=O)CNC(=O)[C@H](C)NC(=O)[C@H](CCCCN)NC(=O)[C@H](CO)NC(=O)[C@H](C)NC(=O)[C@H](CCSC)NC(=O)CN)C(=O)N[C@@H](C)C(=O)NCC(=O)N[C@@H](CCCCN)C(=O)N[C@H](C(=O)N[C@@H](C)C(=O)N[C@@H](CCCCN)C(=O)N[C@H](C(=O)N[C@@H](C)C(=O)N[C@@H](CC(C)C)C(=O)N[C@@H](CCCCN)C(=O)N[C@@H](C)C(=O)N[C@@H](CC(C)C)C(N)=O)C(C)C)[C@@H](C)CC [PGLa] (H-GMASKAGAIAGKIAKVALKAL-NH2)	16 µM	++		+	10 µM	16.3 (≈ 32.1 µg/mL)	25 µM (≈ 49.2 µg/mL)	4.1 (≈ 8.07 µg/mL)							
CC[C@H](C)[C@H](NC(=O)CN)C(=O)NCC(=O)N[C@@H](CCCCN)C(=O)N[C@@H](Cc1ccccc1)C(=O)N[C@@H](CC(C)C)C(=O)N[C@@H](Cc1c[nH]cn1)C(=O)N[C@@H](CO)C(=O)N[C@@H](C)C(=O)N[C@@H](CCCCN)C(=O)N[C@@H](CCCCN)C(=O)N[C@@H](Cc1ccccc1)C(=O)NCC(=O)N[C@@H](CCCCN)C(=O)N[C@@H](C)C(=O)N[C@@H](Cc1ccccc1)C(=O)N[C@H](C(=O)NCC(=O)N[C@@H](CCC(=O)O)C(=O)N[C@H](C(=O)N[C@@H](CCSC)C(=O)N[C@@H](CC(N)=O)C(=O)N[C@@H](CO)C(=O)O)[C@@H](C)CC)C(C)C [MAG2, magainin 2] (H-GIGKFLHSAKKFGKAFVGEIMNS-OH)				+	20 µM										
CC(C)C[C@H](NC(=O)[C@H](C)NC(=O)[C@H](CCCCN)NC(=O)[C@H](CC(C)C)NC(=O)[C@H](C)NC(=O)[C@H](CC(C)C)NC(=O)[C@H](CCCCN)NC(=O)[C@H](CC(C)C)NC(=O)[C@H](C)NC(=O)[C@H](CC(C)C)NC(=O)[C@@H](N)CCCCN)C(=O)N[C@@H](CCCCN)C(=O)N[C@@H](C)C(=O)N[C@@H](C)C(=O)N[C@@H](CC(C)C)C(=O)N[C@@H](CCCCN)C(=O)N[C@@H](CC(C)C)C(=O)N[C@@H](C)C(N)=O [MAP]	2 µM	+++		+++	2 µM	3.2 (≈ 6 µg/mL)	25 µM (≈ 46.9 µg/mL)	0.4 (≈ 0.751 µg/mL)							
CC[C@H](C)[C@H](NC(=O)[C@H](CCCCN)NC(=O)CNC(=O)[C@H](C)NC(=O)[C@@H](NC(=O)[C@H](CCCCN)NC(=O)[C@H](C)NC(=O)[C@@H](NC(=O)[C@H](CCCCN)NC(=O)CNC(=O)[C@H](C)NC(=O)[C@@H](NC(=O)[C@H](CCCCN)NC(=O)[C@H](C)NC(=O)[C@@H](NC(=O)[C@H](CCCCN)NC(=O)CNC(=O)[C@H](C)NC(=O)[C@@H](NC(=O)[C@@H](N)CCCCN)[C@@H](C)CC)[C@@H](C)CC)[C@@H](C)CC)[C@@H](C)CC)[C@@H](C)CC)C(=O)N[C@@H](C)C(N)=O [MSI-103] (H-KIAGKIAKIAGKIAKIAGKIA-NH2)				+++								++	1.6 (≈ 3.3 µg/mL)	12.5 (≈ 25.8 µg/mL)	0.8 (≈ 1.65 µg/mL)
